These results are taken from patent publication US20240246905A1 (University of Leicester, priority 2021, published 2024).

In data set [1] the test system is S. aureus AS 68 biofilm. Put plainly: Biofilm eradication, 24 hour old biofilms, crystal violet. The format is cell-based. As for the experimental part: The attenuation of biomass by the lead compounds in the 24 hour old biofilms was measured by crystal violet stain assay. […] Further assays were performed to study the biofilm attenuation properties of compound 41. At concentrations, as low as 2 μg/ml (the lowest concentration tested), there was still an 86% reduction of the biofilm depth (FIG. 4).
Eradication: To develop biofilms, 2.5 μL of an overnight culture of bacteria was added to individual wells in a 96-well plate each containing 100 μL TSB supplemented with 0.5% glucose and incubated at 37° C. for 24 hours. Following this, the medium in each well was first discarded and washed once with PBS before set concentrations of antibiotic was added and incubated at 37° C. for a further 18 hours. The medium in each well was then discarded, washed 4× with PBS before 150 μL 1% crystal violet was added and the plate was left to incubate at room temperature for a further 30 minutes. Following incubation, the medium in each well was first discarded before being washed 4× with PBS. 200 μL 7% acetic acid was then added and the wells were measured at OD595.

In data set [2] the test system is late-exponential phase MRSA 252. Put plainly: Time-kill assay. The format is cell-based, S. aureus. As for the experimental part:
Investigations into the precise mode of action of these compounds was next studies, with time-kill assays, resistance studies, live-dead stain and morphological analysis of bacteria exposed to the compounds providing an insight into the specific mode of action. Time-kill assays were used to evaluate whether the compounds were bacteriostatic or bactericidal.
The mode of inhibitory action of our novel class of compounds was determined by measuring the decrease in CFU over time. […] The pellets were re-suspended in TSB with the antibiotic added at 2× and 4×MIC and incubated at 37° C. Bacterial suspensions mixed with 1 M saline served as a control. […]

For data set [3], the system named is MRSA 252. Put plainly: LIVE/DEAD assay (SYTO 9 / propidium iodide). The format is cell-based, S. aureus. The following applies: 4×MIC. As for the experimental part: To attempt to further confirm whether the membrane was indeed targeted by compound 41, a LIVE/DEAD assay was performed, in which MRSA 252 was inoculated with two dyes: SYTO 9 and propidium iodide (PI). Cells with compromised membranes will stain fluorescent red whilst those cells with intact membranes will stain fluorescent green. […] Contrary to this, cells with no antibiotic present stained fluorescent green (FIG. 7).
The LIVE/DEAD BacLight™ bacterial viability kit was purchased from Thermo Fischer Scientific and the assay was performed per manufactures instructions. The kit provides two nucleic acid stains; SYTO-9 and propidium iodide (PI), which allows live bacteria with intact membranes to be distinguished from bacteria with compromised membranes. Single colonies of MRSA 252 were added to individual wells containing Melinex® films and 3 mL TSB and incubated at 37° C. for 18 hours with minimal agitation (70 rpm). The growth media was then exposed to the antibiotics at various concentrations and incubated for 10 hours. The medium was then discarded in each well, washed with PBS before 200 μL of a solution containing both nucleic acid stains was added (50 μL of each component in 10 mL PBS) and left to incubate in the dark for 15 minutes at room temperature. […]

In data set [4] the test system is S. aureus SH1000 cells. Put plainly: Potassium leakage detection. The following applies: 60 minutes, MRSA cells. It is filed as cell-based. As for the experimental part:
The potassium leakage of S. aureus SH1000 cells exposed to compounds was conducted as per previously published methods. Briefly, compounds were incubated with mid-exponential-phase S. aureus SH1000 cells in HEPES buffer (˜10^8 CFU/ml) for 60 minutes. Cells were then removed by centrifugation, and the supernatant was assayed for K^+ efflux by using a Perkin-Elmer 11001B atomic absorption instrument in flame emission mode (wavelength, 766.5 nm; slit, 0.7 nm high; air-acetylene flame). Prior to measurements, the instrument was calibrated using analytical grade potassium standards.

Data set [5] deals with E. coli strain DH5a. Put plainly: MIC with and without outer membrane permeabilisation. The format is cell-based. The following applies: Escherichia coli. The protocol:
Antibiotic MIC's were determined by a broth micro-dilution method according to Clinical Standard Laboratory Institute (CSLI) Guidelines (2017). Briefly, 96-well microplates, each containing 195 μL of the 1:2 dilution antibiotic in TSB, were inoculated with 5 μL of overnight cultured bacteria, diluted to give a starting bacterial concentration of 5×10^5 CFU/mL. The optical density of each well inoculated was recorded every 12 minutes over an 18 hour period at 37° C. The data from this was plotted in OriginPro8 (OriginLab) and sigmoidal curves fitted using the dose response function. Fitted values for each curve were used to calculate the MIC.

Data set [6] has as its system MRSA 252. Description: MIC before and after cysteine addition. The following applies: up to 24 hours. The format is cell-based, S. aureus. From the text:
It is well known that compounds bearing an isocyanide group are usually highly reactive, capable of reacting with electrophiles, nucleophiles and radicals.^(30) As a result, it was important to identify any stability issues which might be encountered by the lead compounds, both in storage and in the presence of glutathione and cysteine. […] Another common feature of the lead compounds is the vinyl fragment. It was hypothesized that the presence of glutathione and cysteine found in eukaryotic cells could potentially interact with the electrophilic alkene group in the compounds, thus shutting down their antibiotic activity. To probe this potentially detrimental in vivo process, compound 39 was subjected to glutathione for up to 24 hours whilst compound 41 was added to cysteine for the same length of time.

A short description of data set [7]: Acid stability in 1M acetic acid (NMR, IR). It is filed as physicochemical. Conditions: 6 hours in 1M acetic acid (pH 2.37). As for the experimental part: Also, well documented in the literature, is the hydrolysis of isocyanide compounds to their corresponding formamide in acidic conditions. Due to the acidic conditions present in the stomach it was important to identify whether the lead compounds might hydrolyse to their corresponding formamide compounds in-vivo. To determine this, Compound 41 was stirred for 6 hours in 1M acetic acid (pH 2.37), mimicking the length of time oral drugs are present in the stomach. The NMR data obtained after 6 hours was identical to that of compound 41 before the assay (FIG. 18). In addition to the NMR, IR analysis further confirmed the presence of the isocyanide group post treatment with acid, as shown by the sharp signal at approximately 2100 cm^−1.

Data set [8] relates to Galleria mellonella. Put plainly: Systemic toxicity, Galleria mellonella survival. Conditions: n = 10, injection of 500 μg/mL. As for the experimental part:
Galleria mellonella wax worms purchased from www.livefoods.co.uk were inoculated with 10 μL of a series of dilutions of the antibiotics synthesised in-house. The antibiotic concentrations chosen for this study were the following: 1000 μg/mL, 500 μg/mL, 250 μg/mL, 125 μg/mL and 31.25 μg/mL. Each dilution was injected into 10 individual wax worms through their last pro-leg. The injected wax worms were stored at 25° C. for 5 days. The cytotoxicity was determined as the percentage survival rate of Galleria mellonella Wax worms after 5 days inoculation.

≈ marks a conversion by molar mass, not a printed value.

As to `[C-]#[N+]/C=C/c1ccc(NC(C)=O)cc1/C=C/c1ccccc1` [Compound 41, N-(4-((E)-2-Isocyanovinyl)-3-((E)-styryl)phenyl)acetamide], in data set [1] (S. aureus AS 68, 2 μg/ml (the lowest concentration tested)), the “reduction of the biofilm depth” value is reported as 86%. In addition, the “attenuation of biomass in 24 hour old biofilms” value in data set [1] (S. aureus AS 68, 50 μg/mL, crystal violet) is listed as “significant attenuation in biomass”. Further, the “reduction in bacterial density” value in data set [2] (20 hours exposure, 2×MIC, MRSA 252 in TSB) came to 4 log. In addition, the bacteriostatic or bactericidal entry in data set [2] (late-exponential phase MRSA 252) is listed as “bactericidal activity”. Further, the “membrane integrity (LIVE/DEAD stain)” value in data set [3] is given as “significant membrane damage”. Further, in data set [4], the “dissipation of cellular K+ ions” value is 50%. Moreover, the minimal inhibitory concentration (MIC) in data set [5] (not permeabilised) is 280 µg/mL (≈ 971 µM); in data set [5] (outer membrane permeabilised with polymixin B nanopeptides), 16 µg/mL (≈ 55.5 µM). For the same compound, in data set [6], the “MIC in the presence of cysteine” value was “remained unaffected”. Moreover, in data set [7], the “NMR data after acid exposure” value was “identical”.

With “(2-Isocyanovinyl)-4-acetaamido benzene [Compound 22]”, the “% survival after 5 days” value in data set [8] came to 70%.

What is called MIC is the lowest concentration that inhibits growth of the organism. A higher MIC goes with a need for much substance.
